According to patent publication US20060263802A1 (priority 2003, published 2006):

Columns and labels:
Format in all cases: binding
[1] = test system: human monoclonal antibody CR57
[2] = test system: human monoclonal antibody CRJB
[3] = test system: human monoclonal antibody CRJA
[4] = test system: human monoclonal antibody CRJA; remark: listed apart in the source
[5] = test system: human monoclonal antibody CRJB; remark: listed apart in the source
[6] = test system: human monoclonal antibody CR57; remark: listed apart in the source

Sequence	Binding of CR57 (10 μg/ml) to looped/cyclic peptide (PEPSCAN-ELISA) [1]	Binding of CRJB to linear peptide (PEPSCAN-ELISA signal) [2]	Binding of CRJA (10 μg/ml) to looped/cyclic peptide (PEPSCAN-ELISA) [3]	Binding of CRJA to linear peptide (PEPSCAN-ELISA signal) [4]	Binding of CRJB (10 μg/ml) to looped/cyclic peptide (PEPSCAN-ELISA) [5]	Binding of CR57 to linear peptide (PEPSCAN-ELISA signal) [6]	Binding of CR57 (10 μg/ml) to looped/cyclic peptide (PEPSCAN-ELISA signal) [1]	Binding of CRJA (10 μg/ml) to looped/cyclic peptide (PEPSCAN-ELISA signal) [3]	Binding of CRJB (10 μg/ml) to looped/cyclic peptide (PEPSCAN-ELISA signal) [5]	Binding of CR57 to looped/cyclic peptide (PEPSCAN-ELISA signal) [1]	Binding of human monoclonal antibody CRJB to linear peptide (PEPSCAN-ELISA signal) [2]	Binding of CRJA to looped/cyclic peptide (PEPSCAN-ELISA signal) [3]	Binding of human monoclonal antibody CRJA to linear peptide (PEPSCAN-ELISA signal) [4]	Binding of CRJB to looped/cyclic peptide (PEPSCAN-ELISA signal) [5]	Binding of human monoclonal antibody CR57 to linear peptide (PEPSCAN-ELISA signal) [6]	binding of antibody CR57 to linear peptide (PEPSCAN OD) [6]	strength of binding of CR57 (OD value compared with the other peptides / twice the average value) [6]
ELVRKREECLDALES	93	113	98	97	71	82											
EMQSSLLQQHMELLE	78	129	88	94	98	58											
ENPRLGMSCDIFTNS		118		101		71	100	113	88								
ENYTNFVGYVTTTFK		112		80		44	60	58	80								
ERGLYKSLKGACKLK	100	118	104	101	72	90											
ESIMTTKSVSFRRLS	80	111	49	61	92	62											
ESLHNPYPDYRWLRT		132		80		92	123	106	92								
ESLVIISPSVADLDP		125		120		88	99	118	65								
ESSVIPLVHPLADPS	108	138	91	121	92	104											
ETCGFVDERGLYKSL	90	120	75	85	78	64											
EVHLPDVHNQVSGVD										125	150	103	104	107	91		
FFNGIILGPDGNVLI	72	143	100	119	96	92											
FGKAYTIFNKTLMEA	114	151	96	85	78	90											
FKDGDEAEDFVEVHL										106	76	97	85	80	65		
FKRKHFRPTPDACRA		92		86		64	148	86	72								
FNGIILGPDGNVLIP	94	139	106	99	88	61											
FNKTLMEADAHYKSV	124	141	101	86	129	111											
FPIYTILDKLGPWSP		105		88		42	65	57	63								
FPSGKCSGVAVSSTY		134		93		64	90	80	74								
FRPTPDACRAAYNWK		112		104		43	90	125	88								
FRRLSHLRKLVPGFG	128	108	111	106	54	90											
FRSDEIEHLVVEELV	132	114	94	101	79	86											
FSYMELKVGYILAIK		112		120		89	104	96	72								
FTCTGVVTEAENYTN		125		91		83	123	96	96								
FTNSRGKRASKGSET		111		90		83	89	88	82								
FVDERGLYKSLKGAC	97	121	92	116	79	86											
FVEVHLPDVHNQVSG										150	143	103	93	101	92		
FVGYVTTTFKRKHFR		111		79		70	117	102	82								
GACKLKLCGVLGLRL	73	134	54	64	79	123										bound	lower than twice the average value
